Measured values as given in patent US20180030546A1, “Identification of a 5-Gene Expression Signature Predicting Clinical Outcome of Patients with Brain Tumors” (THE TRUSTEES OF COLUMBIA UNIVERSITY IN THE CITY OF NEW YORK, priority 2012, published 2018).

Experiments:
[1] = test system: SSEA1 and ITGα6 positive GICs; assay: Proximity of GICs to CD31 positive endothelial cells in the perivascular niche; format: in vivo, mouse; details: Id-cTKO tumors versus controls
Protocol: (§1) Tissue preparation and immunohistochemistry on brain tumors and immunofluorescence staining were performed as previously described (26, 50, 51). In histograms, values represent the mean values; error bars are standard deviations (SD) or standard error of the mean (SEM) as indicated in Figure legends. Statistical significance was determined by t test (two-tailed) using GraphPad Prism 4.0 software (GraphPad Inc., San Diego, Calif.). Quantification of the IL-6 intensity staining in was performed using NIH Image J software (http://rsb.info.nih.gov/ij/). The histogram of the intensity of fluorescence of each point of a representative field for each condition was generated. The fluorescence intensity of three fields from three independent tumors was scored, and standardized to the number of cells in the field.

[2] = test system: Ras-V12-IRES-Cre-ER-shp53 HGG; assay: Histology and immunostaining of Ras-V12-IRES-Cre-ER-shp53 tumors after tamoxifen or oil; format: in vivo, mouse
Protocol: as §1
Intracranial injection of Ras-V12-IRES-Cre-ER-shp53 lentivirus was performed in 4-week-old Id-cTKO mice in accordance with guidelines of the […] Animal Care and Use Committee. Briefly, 1.3 μl of purified lentiviral particles in PBS (1×10^9/ml) were injected 1.45 mm lateral and 1.6 mm anterior to the bregma, and 2.3 mm below the skull using a stereotaxic frame (Kopf Instruments). Orthotopic implantation of mouse glioma cells was performed as described using 50,000 cells in 2 μof phosphate buffer (26). […] Mice were monitored daily and sacrificed when neurological symptoms appeared. Tumor volume was obtained using three-dimensional measurements in the formula for an ellipsoid: [Length×Width×Height×(π/6)]. The dimensions were derived from a complete, H&E stained, histological sectioning of the mouse brain. The length was determined by counting the number of sections containing tumor cells and multiplying it by the section thickness. […] Kaplan-Meier survival curve was generated using the DNA Statview software package (AbacusConcepts, Berkeley, Calif.).

[3] = test system: Ras-V12-IRES-Cre-ER-shp53 HGG; assay: Survival of glioma-bearing Id-cTKO mice treated with tamoxifen or oil; format: in vivo, mouse
[4] = test system: GICs from HrasV12-Cre-ER-shp53 glioma; assay: Glioma sphere formation and limiting dilution assay; format: cell-based, mouse
Protocol: For human and mouse glioma sphere formation, cells were infected with lentiviral particles. Three days later single cells were plated at density of ≦3 cells/well in triplicate in low attachment 96 well plates. The number and the size of spheres were scored after 10-14 days. Limiting dilution assay was performed as described previously (24). Spheres were dissociated into single cells and plated in 96-well plates in 0.2 ml of medium containing growth factors. Cultures were left undisturbed for 10 days, and then the percentage of wells not containing spheres for each cell dilution was calculated and plotted against the number of cells per well. Linear regression lines were plotted, and the number of cells required to generate at least one sphere in every well (=the stem cell frequency) was calculated. The experiment was repeated twice.

For `CC/C(=C(\c1ccccc1)c1ccc(OCCN(C)C)cc1)c1ccccc1` [tamoxifen], the “reduction of the fraction of GICs residing within 10 μm from CD31-positive cells” value [1] was “five-fold”, the “tumors with dramatic reduction of tumor volume compared with carrier-treated tumors” value ([2]; Id-cTKO mice sacrificed six weeks after tumor initiation) was 80% and the “reduction in the proliferation rate measured by Ki67 immunoreactivity” value ([2]; Id-cTKO mice, six weeks after tumor initiation, versus control tumors) was “four-fold”. The “ID1 and ID2 expression in advanced tumors by immunofluorescence” value ([2]; seven days after a single four-day cycle of tamoxifen treatment) was “loss of ID1 and ID2 expression”, the “mice alive after a median of twenty weeks” value ([3]; Id-cTKO mice, HrasV12-Cre-ER-shp53 lentivirus, tamoxifen by feeding needle, 4-day cycles from day 12, seven of eleven mice) was 64% and the tumor growth ([3]; wild type animals infected with HrasV12-Cre-ER-shp53 lentivirus (without ID ablation), data not shown) was “did not affect tumor growth”. The tumor-sphere forming capacity ([4]; GICs derived from Id1wt/wt;Id2wt/wt;Id3-/- mice) was “no effect”, the tumor-sphere forming capacity ([4]; GICs isolated from Id-cTKO mice) was “abolished” and the “minimal frequency of glioma cells endowed with stem cell capacity” value ([4]; limiting dilution, cells from freshly dissociated tumors of treated animals, control 3.84%±0.51) was 0.29%±0.02.
